{"source": "patent US12544417B2", "about": "“Oral film and stick jelly for improving absorption in the oral mucosa, antioxidant activity, anti-inflammatory activity, and liver function of humans and companion animals” (ESTHER FORMULA CO., LTD., priority 2022, dated 2026)", "assay": "DPPH-free radical scavenging", "format": "biochemical", "conditions": "ascorbic acid 100 μg/mL, positive control group", "description": "1% of the oral disintegrating film (Example 1-1), the oral mucosal adhesive film (Example 3-1), and the stick jelly (Example 4-1) were homogeneously dissolved, and centrifuged at 10,000 rpm and at 4° C. for 5 minutes to prepare a CFE (cell-free extract). 3.0 mL of a […] (DPPH) solution (5 mg/100 mL ethanol) was mixed with 500 μL of the prepared CFE, and the same amount of ethanol, MRS solution, and ascorbic acid (100 μg/mL) were used as a control group, a blank, and a comparative group, respectively. Then, the result was mixed with the DPPH solution and incubated in a dark room for 30 minutes, absorbance at 517 nm was measured, and the antioxidant activity was converted into % using Equation 1 below. [formula]"}
{"smiles": "O=C1O[C@H]([C@@H](O)CO)C(O)=C1O", "note": "[ascorbic acid]", "values": [{"measurement": "DPPH-free radical scavenging (%)", "value": 90, "unit": "%"}]}
